The term Km denotes the substrate concentration at which the rate is half of its maximum.

The source of these data is patent US12012622B1, “Paenibacillus pabuli-derived enzyme capable of producing galacto-oligosaccharide, and method for producing galacto-oligosaccharide” (GODO SHUSEI CO., LTD., priority 2018, dated 2024).

The subject of experiment [1] is Paenibacillus pabuli lactase (enzyme of Example 1, SEQ ID NO: 1). Put plainly: Analysis of reaction rate parameter with ONPG as substrate (Validation 1). The experiment is classed as biochemical. Conditions: substrate ONPG 0.075 to 7.5 mM; 40° C., 10 minutes; 100 mM sodium phosphate (pH 6.5). The source says:
After the production of each enzyme, the transformant was ultrasonically disrupted to give a cell disruption liquid. […] The prepared cell disruption liquids were each ultra-filtered as necessary to concentrate the enzyme. The concentrated disruption liquid of the enzyme consisting of an amino acid sequence set forth in SEQ ID NO: 1 was defined as Example 1, and the concentrated disruption liquid of the enzyme consisting of an amino acid sequence set forth in SEQ ID NO: 2 was defined as Example 2.
The reaction rate parameter when using the ONPG of the enzyme of Example 1 as the substrate was determined by the following method. The specific activity (μmol/mg protein/min) upon reaction at a substrate concentration of 0.075 to 7.5 mM at 40° C. for 10 minutes was calculated, and the specific activity was plotted to each substrate concentration. At this time, 100 mM sodium phosphate (pH 6.5) was used as the buffer. From the substrate saturation curve measured by the above method, following the Michaelis-Menten equation, Km (Michaelis-Menten constant), which indicates the affinity between the enzyme and the substrate, and V. (maximum velocity), which indicates how many micromoles of substrate is catalyzed in 1 minute per mg of the enzyme, were calculated.

In experiment [2] the test system is Bacillus circulans lactase β-galII (main enzyme of BIOLACTA). The note with it: substrate ONPG; cited from Non-Patent Literature 1; cited from earlier work.

Marks after values point to notes of the source that are not given here.

For `O=[N+]([O-])c1ccccc1O[C@@H]1O[C@H](CO)[C@H](O)[C@H](O)[C@H]1O` [ONPG, o-nitrophenyl-β-galactopyranoside], in experiment [1], the Km worked out at 0.36 mM and the Vmax turned out to be 55.0 units/mg protein. For the same compound, in experiment [2], the Km was 10 mM and the Vmax is on record as 56.0* units/mg protein.
